Source: US8741934B2, “Inhibitors of ion channels” (Pfizer Limited, priority 2007, dated 2014)

Target: T1, hSCN3A sodium channels (Homo sapiens, UniProt Q9NY46)
T1 construct: expressed in transfected cells
Test: hSCN3A electrophysiology, whole-cell patch-clamp or PatchXpress 7000, estimated IC-50 (Table B)
Type: cell-based
Conditions: estimated IC-50; hSCN3A cells, whole-cell patch-clamp or PatchXpress 7000; read-out: SCN3A EIC-50
Experimental: Human Embryonic Kidney (HEK) cells were transfected with an hSCN3A construct using lipofectamine reagent (Invitrogen), using standard techniques. […] Clones were screened for expression using the whole-cell voltage-clamp technique.
HEK cells stably transfected with hSCN3A were maintained in DMEM medium supplemented with 10% heat-inactivated fetal bovine serum and 400 μg/ml G418 sulfate in an incubator at 37° C. with a humidified atmosphere of 10% CO2. […] For electrophysiological studies, cells were removed from the culture flask by brief trypsinization and replated at low density onto glass cover slips. Cells were typically used for electrophysiological experiments within 24 to 72 h after plating.
All recordings were made at room temperature (22-24° C.) using AXOPATCH 200B amplifiers and PCLAMP software (Axon Instruments, Burlingame, Calif.) or PatchXpress 7000 hardware and associated software (Axon Instruments, Burlingame, Calif.).
Current records were acquired at 20 to 50 KHz and filtered at 5 to 10 KHz.
HEK cells stably transfected with hSCN3A were viewed under Hoffman contrast optics and placed in front of an array of flow pipes emitting either control or compound-containing extracellular solutions. All compounds were dissolved in dimethyl sulfoxide to make 10 mM stock solutions, which were then diluted into extracellular solution to attain the final concentrations desired.
The voltage-dependence of inactivation was determined by applying a series of depolarizing prepulses (8 sec long in 10 mV increments) from a negative holding potential. The voltage was then immediately stepped to 0 mV to assess the magnitude of the sodium current. Currents elicited at 0 mV were plotted as a function of prepulse potential to allow estimation of the voltage midpoint of inactivation (V1/2). Cells were then voltage clamped at the empirically determined V1/2.
Compounds were tested for their ability to inhibit hSCN3A sodium channels by activating the channel with a 20 msec voltage step to 0 mV following an 8 second conditioning prepulse to the empirically determined V1/2 (Table B). Compound effect (% inhibition) was determined by difference in current amplitude before and after application of test compounds. […] Inhibition values <20% and >80% were excluded from the calculation.
In some cases electrophysiological assays were conducted with PatchXpress 7000 hardware and associated software (Molecular Devices Corp) (Table B). All assay buffers and solutions were identical to those used in conventional whole-cell voltage clamp experiments described above. hSCN3A cells were grown as above to 50%-80% confluency and harvested by trypsinization. Trypsinized cells were washed and resuspended in extracellular buffer at a concentration of 1×10^6 cells/ml. The onboard liquid handling facility of the PatchXpress was used for dispensing cells and application of test compounds. Determination of the voltage midpoint of inactivation was as described for conventional whole-cell recordings. Cells were then voltage-clamped to the empirically determined V1/2 and current was activated by a 20 msec voltage step to 0 mV.

T1 sequence (Q9NY46 whole entry): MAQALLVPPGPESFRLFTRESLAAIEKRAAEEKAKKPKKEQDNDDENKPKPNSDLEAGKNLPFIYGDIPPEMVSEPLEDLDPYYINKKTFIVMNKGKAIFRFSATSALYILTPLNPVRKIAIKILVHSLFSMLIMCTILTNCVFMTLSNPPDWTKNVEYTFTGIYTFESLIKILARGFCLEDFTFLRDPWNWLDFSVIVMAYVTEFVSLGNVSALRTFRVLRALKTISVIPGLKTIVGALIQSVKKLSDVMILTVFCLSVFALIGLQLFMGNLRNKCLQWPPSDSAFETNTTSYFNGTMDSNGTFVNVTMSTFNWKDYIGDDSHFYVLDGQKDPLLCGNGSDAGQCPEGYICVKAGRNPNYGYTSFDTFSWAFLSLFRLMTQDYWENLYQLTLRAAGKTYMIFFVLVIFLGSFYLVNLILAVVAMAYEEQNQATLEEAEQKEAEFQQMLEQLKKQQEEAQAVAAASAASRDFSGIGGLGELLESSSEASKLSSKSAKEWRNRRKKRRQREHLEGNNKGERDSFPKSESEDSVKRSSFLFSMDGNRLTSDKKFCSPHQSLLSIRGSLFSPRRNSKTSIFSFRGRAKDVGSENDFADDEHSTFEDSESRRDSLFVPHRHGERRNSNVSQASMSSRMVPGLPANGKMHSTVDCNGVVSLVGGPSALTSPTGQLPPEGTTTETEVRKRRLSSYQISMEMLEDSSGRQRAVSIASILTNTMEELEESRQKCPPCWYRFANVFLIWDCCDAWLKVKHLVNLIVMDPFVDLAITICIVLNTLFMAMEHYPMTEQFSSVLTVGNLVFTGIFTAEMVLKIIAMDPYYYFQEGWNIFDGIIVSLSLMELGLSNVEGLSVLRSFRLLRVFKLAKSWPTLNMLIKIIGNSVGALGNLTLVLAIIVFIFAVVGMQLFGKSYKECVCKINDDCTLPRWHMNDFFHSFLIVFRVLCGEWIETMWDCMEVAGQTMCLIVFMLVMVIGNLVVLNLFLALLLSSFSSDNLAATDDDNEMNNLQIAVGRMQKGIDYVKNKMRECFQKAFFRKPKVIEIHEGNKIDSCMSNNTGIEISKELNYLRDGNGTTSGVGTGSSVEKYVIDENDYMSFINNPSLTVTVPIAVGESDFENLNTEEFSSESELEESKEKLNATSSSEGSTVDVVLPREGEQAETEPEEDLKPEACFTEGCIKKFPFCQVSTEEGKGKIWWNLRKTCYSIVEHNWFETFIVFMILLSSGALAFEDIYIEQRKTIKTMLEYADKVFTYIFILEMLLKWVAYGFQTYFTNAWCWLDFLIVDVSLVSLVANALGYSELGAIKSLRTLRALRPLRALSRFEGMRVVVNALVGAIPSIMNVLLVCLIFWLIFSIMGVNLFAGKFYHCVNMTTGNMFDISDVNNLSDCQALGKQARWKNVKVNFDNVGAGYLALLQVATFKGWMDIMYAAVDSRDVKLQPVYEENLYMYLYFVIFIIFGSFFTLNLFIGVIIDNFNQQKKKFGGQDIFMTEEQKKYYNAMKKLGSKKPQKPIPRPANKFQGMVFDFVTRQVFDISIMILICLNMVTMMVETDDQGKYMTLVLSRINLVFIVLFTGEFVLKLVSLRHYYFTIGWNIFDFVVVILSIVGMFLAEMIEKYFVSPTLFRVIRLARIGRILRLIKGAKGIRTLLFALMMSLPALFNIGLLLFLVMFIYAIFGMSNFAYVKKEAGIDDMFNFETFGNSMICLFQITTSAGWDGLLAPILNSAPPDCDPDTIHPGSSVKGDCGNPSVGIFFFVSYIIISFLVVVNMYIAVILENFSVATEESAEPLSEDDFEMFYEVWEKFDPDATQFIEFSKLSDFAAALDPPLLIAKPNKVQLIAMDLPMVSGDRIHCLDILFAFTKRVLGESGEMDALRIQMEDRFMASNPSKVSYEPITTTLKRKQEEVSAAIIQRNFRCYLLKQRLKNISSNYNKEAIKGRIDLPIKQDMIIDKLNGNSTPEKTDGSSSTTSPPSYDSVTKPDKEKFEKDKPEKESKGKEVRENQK

O=C(NCc1ccc(F)c(C(F)(F)F)c1)c1ccc(S(=O)(=O)Nc2ncc(Cl)s2)cc1F [Example 353, 4-{[(5-Chloro-1,3-thiazol-2-yl)amino]sulfonyl}-2-fluoro-N-[4-fluoro-3-(trifluoromethyl)benzyl]benzamide]
IC50: 220 nM

Cc1ccccc1O[C@H]1CCN(C(=O)c2ccc(S(=O)(=O)Nc3nccs3)cc2)C1 [Example 198, 4-{[(3S)-3-(2-methylphenoxy)pyrrolidin-1-yl]carbonyl}-N-1,3-thiazol-2-yl-benzenesulfonamide]
IC50: 3030 nM

O=C(NCc1ccc(Cl)nc1)c1ccc(S(=O)(=O)Nc2nccs2)cc1 [Example 407, N-[(6-chloropyridin-3-yl)methyl]-4-[(1,3-thiazol-2-ylamino)sulfonyl] benzamide]
IC50: 1780 nM

N#Cc1ccc(OC2CCCN(C(=O)c3ccc(S(=O)(=O)Nc4nccs4)cc3)C2)cc1F (centres unmarked) [Example 193, 4-{[3-(4-Cyano-3-fluorophenoxy)piperidin-1-yl]carbonyl}-N-1,3-thiazol-2-yl-benzenesulfonamide]
IC50: 3270 nM

N#Cc1cc(S(=O)(=O)Nc2ncc(Cl)s2)ccc1C(=O)NCc1ccc(C(F)(F)F)cc1 [Example 347, 4-{[(5-Chloro-1,3-thiazol-2-yl)amino]sulfonyl}-2-cyano-N-[4-(trifluoromethyl)benzyl]benzamide]
IC50: 1620 nM

O=C(NCc1ccc(C(F)(F)F)c(F)c1)c1ccc(S(=O)(=O)Nc2nccs2)c(Cl)c1 [Example 289, 3-Chloro-N-[3-fluoro-4-(trifluoromethyl)benzyl]-4-[(1,3-thiazol-2-yl-amino)sulfonyl]benzamide]
IC50: 340 nM

Cc1ccc(CNC(=O)c2ccc(S(=O)(=O)Nc3nccs3)cc2)cc1Cl [Example 400, N-(3-chloro-4-methylbenzyl)-4-[(1,3-thiazol-2-ylamino)sulfonyl] benzamide]
IC50: 70 nM

O=C(NCc1ccc(F)c(Cl)c1)c1ccc(S(=O)(=O)Nc2nccs2)c(Cl)c1 [Example 294, 3-Chloro-N-(3-chloro-4-fluorobenzyl)-4-[(1,3-thiazol-2-yl-amino)sulfonyl]benzamide]
IC50: 1840 nM

O=C(NCc1ccc(OC(F)(F)F)c(F)c1)c1ccc(S(=O)(=O)Nc2ncns2)cc1 [Example 321, N-[3-fluoro-4-(trifluoromethoxy)benzyl]-4-[(1,2,4-thiadiazol-5-ylamino)sulfonyl]benzamide]
IC50: 40 nM

O=C(NCc1cccc(C(F)(F)F)c1)c1ccc(S(=O)(=O)Nc2nccs2)cc1 [Example 398, 4-[(1,3-Thiazol-2-ylamino)sulfonyl]-N-[3-(trifluoromethyl)benzyl] benzamide]
IC50: 260 nM

CC(C)(C)CCNC(=O)c1ccc(S(=O)(=O)Nc2ncc(Cl)s2)c(F)c1 [Example 389, 4-{[(5-Chloro-1,3-thiazol-2-yl)amino]sulfonyl}-N-(3,3-dimethylbutyl)-3-fluorobenzamide]
IC50: 610 nM

O=C(NCc1ccc(F)c(Cl)c1)c1ccc(S(=O)(=O)Nc2ncc(Cl)s2)c(Cl)c1 [Example 363, 3-Chloro-N-(3-chloro-4-fluorobenzyl)-4-{[(5-chloro-1,3-thiazol-2-yl)amino]sulfonyl} benzamide]
IC50: 1200 nM

O=C(c1ccc(S(=O)(=O)Nc2nccs2)cc1)N1CCC[C@H]1COc1cccc(Cl)c1 [Example 384, 4-({(2S)-2-[(3-chlorophenoxy)methyl]pyrrolidin-1-yl}carbonyl)-N-1,3-thiazol-2-ylbenzenesulfonamide]
IC50: 350 nM

O=C(NCc1cccc(OC(F)(F)F)c1)c1ccc(S(=O)(=O)Nc2nccs2)c(F)c1 [Example 296, 3-Fluoro-4-[(1,3-thiazol-2-ylamino)sulfonyl]-N-[3-(trifluoromethoxy)benzyl]benzamide]
IC50: 190 nM

O=C(NCCc1cccc(Cl)c1)c1ccc(S(=O)(=O)Nc2nccs2)cc1 [Example 70, N-[2-(3-chlorophenyl)ethyl]-4-[(1,3-thiazol-2-ylamino)sulfonyl]benzamide]
IC50: > 300 nM

O=C(NCc1cccc(C(F)(F)F)c1)c1ccc(S(=O)(=O)Nc2ncc(Cl)s2)cc1F [Example 354, 4-{[(5-Chloro-1,3-thiazol-2-yl)amino]sulfonyl}-2-fluoro-N-[3-(trifluoromethyl)benzyl]benzamide]
IC50: 210 nM

O=C(NCc1ccccc1SC(F)(F)F)c1ccc(S(=O)(=O)Nc2nccs2)cc1 [Example 122, 4-[(1,3-Thiazol-2-ylamino)sulfonyl]-N-{2-[(trifluoromethyl)thio]benzyl}benzamide]
IC50: 1300 nM

CN(Cc1ccc(F)cc1)C(=O)c1ccc(S(=O)(=O)Nc2ncc(Cl)s2)cc1 [Example 43, 4-{[(5-Chloro-1,3-thiazol-2-yl)amino]sulfonyl}-N-(4-fluorobenzyl)-N-methylbenzamide]
IC50: 4830 nM

O=C(NCc1ccc(C(F)(F)F)cc1)c1ccc(S(=O)(=O)Nc2cscn2)cc1 [Example 13, 4-[(1,3-Thiazol-4-ylamino)sulfonyl]-N-[4-(trifluoromethyl)benyzyl]benzamide]
IC50: 680 nM

O=C(Nc1nccc2cccnc12)c1ccc(S(=O)(=O)Nc2nccs2)cc1 [Example 116, N-1,7-naphthyridin-8-yl-4-[(1,3-thiazol-2-ylamino)sulfonyl]benzamide]
IC50: > 100 nM

O=C(NCc1ccc(C(F)(F)F)cc1)c1ccc(S(=O)(=O)Nc2nccs2)cc1F [Example 325, 2-Fluoro-4-[(1,3-thiazol-2-ylamino)sulfonyl]-N-[4-(trifluoromethyl)benzyl]benzamide]
IC50: 460 nM

O=C(N[C@H]1C[C@@H]1c1ccccc1)c1ccc(S(=O)(=O)Nc2ncc(Cl)s2)cc1 [Example 42, 4-{[(5-Chloro-1,3-thiazol-2-yl)amino]sulfonyl}-N-[(1S,2R)-2-phenylcyclopropyl]benzamide]
IC50: 510 nM

O=C(c1ccc(S(=O)(=O)Nc2nccs2)cc1)N1CCO[C@H]2Cc3ccccc3[C@H]21 [Example 52, 4-[(4aR,9aS)-2,3,9,9a-tetrahydroindeno[2,1-b][1,4]oxazin-4(4aH)-ylcarbonyl]-N-1,3-thiazol-2-ylbenzenesulfonamide]
IC50: 2910 nM

O=C(NCc1ccc(C(F)(F)F)cc1)c1ccc(S(=O)(=O)Nc2ncc(Cl)s2)c(Cl)c1 [Example 373, 3-Chloro-4-{[(5-chloro-1,3-thiazol-2-yl)amino]sulfonyl}-N-[4-(trifluoromethyl)benzyl] benzamide]
IC50: 490 nM

O=C(NCc1ccc(C(F)(F)F)c(F)c1)c1ccc(S(=O)(=O)Nc2ncc(Cl)s2)cc1F [Example 356, 4-{[(5-Chloro-1,3-thiazol-2-yl)amino]sulfonyl}-2-fluoro-N-[3-fluoro-4-(trifluoromethyl)benzyl]benzamide]
IC50: 210 nM

O=C(NCc1ccc(OC(F)(F)F)c(F)c1)c1ccc(S(=O)(=O)Nc2ncc(Cl)s2)c(Cl)c1 [Example 365, 3-Chloro-4-{[(5-chloro-1,3-thiazol-2-yl)amino]sulfonyl}-N-[3-fluoro-4-(trifluoromethoxy)benzyl]benzamide]
IC50: 600 nM

O=C(NCCOc1cccc(Cl)c1)c1ccc(S(=O)(=O)Nc2nccs2)cc1 [Example 144, N-[2-(3-chlorophenoxy)ethyl]-4-[(1,3-thiazol-2-ylamino)sulfonyl]benzamide]
IC50: 1180 nM

Cc1cc(CC(NC(=O)c2ccc(S(=O)(=O)Nc3nccs3)cc2)c2cccc(Cl)c2)on1 (centres unmarked) [Example 136, N-[1-(3-chlorophenyl)-2-(3-methylisoxazol-5-yl)ethyl]-4-[(1,3-thiazol-2-ylamino)sulfonyl]benzamide]
IC50: 4260 nM

CC(O)(CN(C(=O)c1ccc(S(=O)(=O)Nc2nccs2)cc1)C1CCCCC1)c1ccccc1 (centres unmarked) [Example 257, N-cyclohexyl-N-(2-hydroxy-2-phenylpropyl)-4-[(1,3-thiazol-2-yl-amino)sulfonyl]benzamide]
IC50: > 1000 nM

COc1ccccc1CC1CCCN(C(=O)c2ccc(S(=O)(=O)Nc3nccs3)cc2)C1 (centres unmarked) [Example 196, 4-{[3-(2-Methoxybenzyl)piperidin-1-yl]carbonyl}-N-1,3-thiazol-2-yl-benzenesulfonamide]
IC50: > 1000 nM

O=C(Nc1ccn(Cc2ccc(Cl)cc2)n1)c1ccc(S(=O)(=O)Nc2nccs2)cc1 [Example 308, N-[1-(4-chlorobenzyl)-1H-pyrazol-3-yl]-4-[(1,3-thiazol-2-ylamino)sulfonyl]benzamide]
IC50: 320 nM

O=C(NCc1cccc(OC(F)F)c1)c1ccc(S(=O)(=O)Nc2nccs2)cc1 [Example 63, N-[3-(difluoromethoxy)benzyl]-4-[(1,3-thiazol-2-ylamino)sulfonyl]benzamide]
IC50: 1090 nM
